From PubChem BioAssay (NCI)
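Where inhibition never reached the appropriate level, the endpoint shown equals the highest concentration tested. Otherwise, values were interpolated linearly from a five-concentration, 48-hour dose response in 96-well plates. At the GI50, growth is halved. TGI: total growth inhibition.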

Experiments:
Assay in all cases: inhibition of tumour cell growth, NCI panel, 48 h
LOX IMVI melanoma = system: LOX IMVI melanoma
UACC-257 melanoma = system: UACC-257 melanoma
NCI-H226 lung = system: NCI-H226 lung
SN12C renal = system: SN12C renal
EKVX NSCLC = system: EKVX NSCLC
MDA-MB-231 breast = system: MDA-MB-231 breast
HCT-15 colon = system: HCT-15 colon
CCRF-CEM leukemia = system: CCRF-CEM leukemia
SNB-75 CNS = system: SNB-75 CNS
OVCAR-4 ovarian = system: OVCAR-4 ovarian
HS 578T breast = system: HS 578T breast
MOLT-4 leukemia = system: MOLT-4 leukemia
SK-MEL-2 melanoma = system: SK-MEL-2 melanoma
A549 NSCLC = system: A549 NSCLC
OVCAR-8 ovarian = system: OVCAR-8 ovarian
MCF7 breast = system: MCF7 breast
U251 CNS = system: U251 CNS
CAKI-1 renal = system: CAKI-1 renal
SF-539 CNS = system: SF-539 CNS
KM12 colon = system: KM12 colon
786-0 renal = system: 786-0 renal
COLO 205 colon = system: COLO 205 colon
SW-620 colon = system: SW-620 colon
TK-10 renal = system: TK-10 renal
OVCAR-5 ovarian = system: OVCAR-5 ovarian
SNB-19 CNS = system: SNB-19 CNS
T-47D breast = system: T-47D breast
NCI-H522 lung = system: NCI-H522 lung
HCT-116 colon = system: HCT-116 colon
UACC-62 melanoma = system: UACC-62 melanoma
NCI/ADR-RES ovarian = system: NCI/ADR-RES ovarian
RXF 393 renal = system: RXF 393 renal
BT-549 breast = system: BT-549 breast
IGROV1 ovarian = system: IGROV1 ovarian
ACHN renal = system: ACHN renal
HOP-92 NSCLC = system: HOP-92 NSCLC
HOP-62 NSCLC = system: HOP-62 NSCLC
SK-MEL-28 melanoma = system: SK-MEL-28 melanoma
SK-OV-3 ovarian = system: SK-OV-3 ovarian
HT29 colon = system: HT29 colon
RPMI-8226 leukemia = system: RPMI-8226 leukemia
SF-295 CNS = system: SF-295 CNS
HL-60(TB) leukemia = system: HL-60(TB) leukemia
K-562 leukemia = system: K-562 leukemia
MDA-MB-435 = system: MDA-MB-435
SK-MEL-5 melanoma = system: SK-MEL-5 melanoma
DU-145 prostate = system: DU-145 prostate
HCC-2998 colon = system: HCC-2998 colon
NCI-H460 lung = system: NCI-H460 lung
PC-3 prostate = system: PC-3 prostate
MALME-3M melanoma = system: MALME-3M melanoma
UO-31 renal = system: UO-31 renal
M14 melanoma = system: M14 melanoma
SF-268 CNS = system: SF-268 CNS
SR leukemia = system: SR leukemia
A498 renal = system: A498 renal

Cc1ccc(C2=Nn3c(nnc3-c3ccccc3)SC2)cc1
GI50 (LOX IMVI melanoma): 838 nM
TGI (LOX IMVI melanoma): > 100000 nM
GI50 (UACC-257 melanoma): > 100000 nM
TGI (UACC-257 melanoma): > 100000 nM
GI50 (NCI-H226 lung): 3450 nM
TGI (NCI-H226 lung): > 100000 nM
GI50 (SN12C renal): 799 nM
TGI (SN12C renal): > 100000 nM
GI50 (EKVX NSCLC): 6840 nM
TGI (EKVX NSCLC): > 100000 nM
GI50 (MDA-MB-231 breast): 497 nM
TGI (MDA-MB-231 breast): > 100000 nM
GI50 (HCT-15 colon): 416 nM
TGI (HCT-15 colon): > 100000 nM
GI50 (CCRF-CEM leukemia): 1660 nM
TGI (CCRF-CEM leukemia): > 100000 nM
GI50 (SNB-75 CNS): 392 nM
TGI (SNB-75 CNS): 5270 nM
GI50 (OVCAR-4 ovarian): 6280 nM
TGI (OVCAR-4 ovarian): > 100000 nM
GI50 (HS 578T breast): 1200 nM
TGI (HS 578T breast): 25600 nM
GI50 (MOLT-4 leukemia): 461 nM
TGI (MOLT-4 leukemia): > 100000 nM
GI50 (SK-MEL-2 melanoma): 921 nM
TGI (SK-MEL-2 melanoma): 96900 nM
GI50 (A549 NSCLC): 702 nM
TGI (A549 NSCLC): > 100000 nM
GI50 (OVCAR-8 ovarian): 1780 nM
TGI (OVCAR-8 ovarian): 84600 nM
GI50 (MCF7 breast): 1600 nM
TGI (MCF7 breast): > 100000 nM
GI50 (U251 CNS): 528 nM
TGI (U251 CNS): > 100000 nM
GI50 (CAKI-1 renal): 750 nM
TGI (CAKI-1 renal): > 100000 nM
GI50 (SF-539 CNS): 925 nM
TGI (SF-539 CNS): 4760 nM
GI50 (KM12 colon): 17300 nM
TGI (KM12 colon): > 100000 nM
GI50 (786-0 renal): 6020 nM
TGI (786-0 renal): > 100000 nM
GI50 (COLO 205 colon): 492 nM
TGI (COLO 205 colon): 24500 nM
GI50 (SW-620 colon): 378 nM
TGI (SW-620 colon): > 100000 nM
GI50 (TK-10 renal): 54100 nM
TGI (TK-10 renal): > 100000 nM
GI50 (OVCAR-5 ovarian): 2570 nM
TGI (OVCAR-5 ovarian): > 100000 nM
GI50 (SNB-19 CNS): 3500 nM
TGI (SNB-19 CNS): > 100000 nM
GI50 (T-47D breast): 869 nM
TGI (T-47D breast): > 100000 nM
GI50 (NCI-H522 lung): 440 nM
TGI (NCI-H522 lung): 2540 nM
GI50 (HCT-116 colon): 428 nM
TGI (HCT-116 colon): > 100000 nM
GI50 (UACC-62 melanoma): 536 nM
TGI (UACC-62 melanoma): > 100000 nM
GI50 (NCI/ADR-RES ovarian): 262 nM
TGI (NCI/ADR-RES ovarian): 881 nM
GI50 (RXF 393 renal): 1870 nM
TGI (RXF 393 renal): 19700 nM
GI50 (BT-549 breast): 385 nM
TGI (BT-549 breast): > 100000 nM
GI50 (IGROV1 ovarian): 801 nM
TGI (IGROV1 ovarian): > 100000 nM
GI50 (ACHN renal): 3270 nM
TGI (ACHN renal): > 100000 nM
GI50 (HOP-92 NSCLC): 2580 nM
TGI (HOP-92 NSCLC): > 100000 nM
GI50 (HOP-62 NSCLC): 1230 nM
TGI (HOP-62 NSCLC): > 100000 nM
GI50 (SK-MEL-28 melanoma): 27400 nM
TGI (SK-MEL-28 melanoma): > 100000 nM
GI50 (SK-OV-3 ovarian): 1760 nM
TGI (SK-OV-3 ovarian): > 100000 nM
GI50 (HT29 colon): 412 nM
TGI (HT29 colon): 3530 nM
GI50 (RPMI-8226 leukemia): 895 nM
TGI (RPMI-8226 leukemia): > 100000 nM
GI50 (SF-295 CNS): 845 nM
TGI (SF-295 CNS): > 100000 nM
GI50 (HL-60(TB) leukemia): 333 nM
TGI (HL-60(TB) leukemia): > 100000 nM
GI50 (K-562 leukemia): 321 nM
TGI (K-562 leukemia): > 100000 nM
GI50 (MDA-MB-435): 196 nM
TGI (MDA-MB-435): 459 nM
GI50 (SK-MEL-5 melanoma): 595 nM
TGI (SK-MEL-5 melanoma): > 100000 nM
GI50 (DU-145 prostate): 2850 nM
TGI (DU-145 prostate): > 100000 nM
GI50 (HCC-2998 colon): 1040 nM
TGI (HCC-2998 colon): > 100000 nM
GI50 (NCI-H460 lung): 389 nM
TGI (NCI-H460 lung): 50000 nM
GI50 (PC-3 prostate): 815 nM
TGI (PC-3 prostate): > 100000 nM
GI50 (MALME-3M melanoma): > 100000 nM
TGI (MALME-3M melanoma): > 100000 nM
GI50 (UO-31 renal): 2150 nM
TGI (UO-31 renal): > 100000 nM
GI50 (M14 melanoma): 435 nM
TGI (M14 melanoma): > 100000 nM
GI50 (SF-268 CNS): 6370 nM
TGI (SF-268 CNS): > 100000 nM
GI50 (SR leukemia): 251 nM
TGI (SR leukemia): > 100000 nM
GI50 (A498 renal): 445 nM
TGI (A498 renal): 5230 nM
